# Earlier results in patent US12589095B2, “Unit dosage form for transmucosal drug delivery of an active pharmaceutical ingredient” (Primo Pharmatech LLC, priority 2019, dated 2026).
# Conditions: known / published value; cited from earlier work
row,Compound,HLB
1,Polyoxyethylene sorbitol wax derivative,2.0
2,Polyoxyethylene lauryl ether [Polyoxyethylene lauryl ether (G-3705)],10.5
3,CCCCCCCCCCCCCCCCCC(=O)OCCOCCO [Diethylene glycol monostearate],4.3
4,CCCCCCCC/C=C\CCCCCCCC(=O)OCC(O)CO (stereo not shown) [Glyceryl monooleate],3.4
5,Polyoxyethylene monostearate [Polyoxyethylene monostearate (Myrj 45)],10.8
6,Polyethylene lauryl ether [Polyethylene lauryl ether (Brij 30)],8.6
7,CCCCCCCCCCCCCCCCCC(=O)OCC(O)CO (stereo not shown) [Glyceryl monostearate],2.1
8,Sorbitan monolaurate [SPAN 20],SPAN 20 (HLB8.6)
9,Glyceryl dioleate,1.8
10,CCCCCCCC/C=C\CCCCCCCC(=O)[O-].[Na+] [Sodium oleate],16.9
11,sorbitan monooleate [Span 80],4.3
12,CCCCCCCCCCCC(=O)OCCOCCO [Diethylene glycol monolaurate],5.5
13,"CCCCCCCCCCCCCCCCCC(=O)OCC(O)CO (stereo not shown) [Glyceryl monostearate (Tegin), Glyceryl monostearate]",4.7
14,CCCCCCCC/C=C\CCCCCCCC(=O)[O-].[K+] [Potassium oleate],18.0
15,Polyethylene glycol 400 monolaurate,12.8
16,CCCCCCCC/C=C\CCCCCCCC(=O)O [Oleic acid],1.0

# Same assay, conditions: known / published value; listed as Oleic Acid; cited from earlier work
row,Compound,HLB
1,CCCCCCCC/C=C\CCCCCCCC(=O)O [Oleic acid],1

# Same assay, conditions: known / published value; listed as Sorbitan mono-oleate (Span 80); cited from earlier work
row,Compound,HLB
1,sorbitan monooleate [Span 80],3.8

# Same assay, conditions: known / published value; listed as Sorbitan monolaurate (Span 20); cited from earlier work
row,Compound,HLB
1,Sorbitan monolaurate [SPAN 20],6.1
